From patent US7732424B2, “Purine derivatives and methods of use thereof” (Inotek Pharmaceuticals Corporation, priority 2005, dated 2010)
Like-named read-outs stand apart in the source and are kept apart here.

Key:
[1] = biological target: human recombinant A1 adenosine receptor (Homo sapiens, UniProt P30542); experiment: Adenosine A1 receptor binding, displacement of [^3H]CCPA in transfected CHO cells
Description: (§1) Membranes for radioligand binding experiments were prepared from fresh or frozen cells as described in Klotz et al., Naunyn-Schmiedeberg's Arch. Pharmacol., 357:1-9 (1998). The cell suspension was then homogenized in ice-cold hypotonic buffer (5 mM Tris/HCl, 2 mM EDTA, pH 7.4) and the resultant homogenate was spun for 10 minutes (4° C.) at 1,000 g. The membranes were then sedimented from the supernatant for 30 minutes at 100,000 g and resuspended in 50 mM Tris/HCl buffer pH 7.4 (for A3 adenosine receptors: 50 mM Tris/HCl, 10 mM MgCl2, 1 mM EDTA, pH 8.25), frozen in liquid nitrogen at a protein concentration of 1-3 mg/mL and stored at −80° C.
(§2) Nonspecific binding was determined in the presence of 100 μM R-PIA and 1 mM theophylline, respectively. For details see Klotz et al., Naunyn-Schmiedeberg's Arch. Pharmacol., 357:1-9, 1998. All binding data were calculated by non-linear curve fitting using the program SCTFIT (De Lean et al., Mol. Pharm. 1982, 21:5-16).

[2] = biological target: T1, human recombinant A3 adenosine receptor (Homo sapiens, UniProt P0DMS8); experiment: Adenosine A3 receptor binding, displacement of [^3H]NECA in transfected HEK cells; conditions: displacement of specific [^3H]NECA binding, geometric mean
T1 construct: expressed in transfected cells
T1 sequence (P0DMS8 1-318): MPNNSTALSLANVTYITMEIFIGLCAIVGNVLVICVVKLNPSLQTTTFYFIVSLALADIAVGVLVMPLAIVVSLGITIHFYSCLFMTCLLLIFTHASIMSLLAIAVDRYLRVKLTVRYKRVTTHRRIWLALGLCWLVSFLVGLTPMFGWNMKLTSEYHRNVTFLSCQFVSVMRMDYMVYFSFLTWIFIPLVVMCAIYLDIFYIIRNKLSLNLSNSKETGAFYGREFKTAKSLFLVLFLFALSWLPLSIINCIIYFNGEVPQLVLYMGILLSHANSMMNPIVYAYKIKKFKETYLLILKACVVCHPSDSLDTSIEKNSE
Description: as §1, §2

[3] = tested on: New Zealand white rabbits; experiment: Effect on intraocular pressure (IOP) in rabbits; assay type: in vivo, rabbit
Description: The effect of an illustrative Purine Derivative on intraocular pressure (IOP) was examined in New Zealand white rabbits. New Zealand white rabbits undergo a circadian change in intraocular pressure, such that lowest pressure values occur in the early morning and peak pressure values occur in the afternoon. […] Consistency of measurements is indicated by the fact the intraocular pressure at t=−23 hours and t=25 hours is essentially the same (see FIGS. 1-5).
One rabbit was administered with each each dose level. […] Thus, Compound I′-1 was administered when the level of intraocular pressure was low relative to other timepoints during the day and night.

[4] = biological target: T2, human recombinant A2A adenosine receptor (Homo sapiens, UniProt P29274); experiment: Adenosine A2A receptor binding, displacement of [^3H]NECA in transfected CHO cells
T2 construct: expressed in transfected cells
Description: as §1, §2

male Sprague-Dawley rats = experiment: Effect on core body temperature in rats; assay type: in vivo; set-up: Rectal Temperature: unit not given here; conditions: for Behavior / Rectal Temperature / Respiratory Rate / Respiration Rate: rat at 13° C., 15 mg/kg JV then 20 mg/mL at 1 mL/h
Description: Their rectal temperature, respiratory rate, and behavior were recorded following 5 min, 10 min, 20 min, 30 min, 1 h, 1.5 h, 2 h, 2.5 h, 3 h, 3.5 h, and 4 h.

T2 sequence (P29274 whole entry): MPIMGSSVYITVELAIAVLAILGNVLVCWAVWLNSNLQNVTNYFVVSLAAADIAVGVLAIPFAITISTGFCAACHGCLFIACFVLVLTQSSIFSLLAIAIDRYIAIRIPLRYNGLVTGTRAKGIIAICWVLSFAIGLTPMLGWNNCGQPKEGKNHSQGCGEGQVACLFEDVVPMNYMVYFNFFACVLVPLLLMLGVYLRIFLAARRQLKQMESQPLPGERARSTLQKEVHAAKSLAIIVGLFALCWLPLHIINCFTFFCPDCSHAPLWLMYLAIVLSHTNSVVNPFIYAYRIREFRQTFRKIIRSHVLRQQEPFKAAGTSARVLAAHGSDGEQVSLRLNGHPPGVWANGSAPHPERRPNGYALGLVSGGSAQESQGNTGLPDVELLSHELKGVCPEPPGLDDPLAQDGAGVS
Chain of human recombinant A1 adenosine receptor (P30542 whole entry): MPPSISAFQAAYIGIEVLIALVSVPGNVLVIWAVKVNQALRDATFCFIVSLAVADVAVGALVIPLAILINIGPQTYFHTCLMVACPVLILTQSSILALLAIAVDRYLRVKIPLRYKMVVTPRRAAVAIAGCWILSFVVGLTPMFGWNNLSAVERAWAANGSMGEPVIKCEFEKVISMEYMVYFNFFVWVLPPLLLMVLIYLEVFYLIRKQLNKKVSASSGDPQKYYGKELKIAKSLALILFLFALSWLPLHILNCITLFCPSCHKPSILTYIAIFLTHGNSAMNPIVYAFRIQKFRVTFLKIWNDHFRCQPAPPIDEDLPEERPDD

SMILES: OC[C@H]1O[C@@H](n2cnc3c(NC4(CO)CCCC4)ncnc32)[C@H](O)[C@@H]1O [I′-1]
- Ki [1]: 0.00677 µM
- Ki [2]: 7.7 µM
- Effect on intraocular pressure (conclusion) ([3]; FIGS. 1-5): reduces an animal's intraocular pressure
- Time of recovery of intraocular pressure values to normal levels ([3]; administered concentration 0.3 mg/mL (FIG. 1)): ~6 h
- Time of recovery of intraocular pressure values to normal levels ([3]; administered concentration 30 mg/mL (FIG. 5)): > 7 h
- Intraocular pressure course after administration ([3]; one drop to one eye at t=0 hours, FIGS. 1-5): the intraocular pressure did not increase to the normal day values
- Eye irritation ([3]; topical ocular, 0.3-30.0 mg/mL): No eye irritation was observed in any animal
- Ki [4]: 28.1 µM
- Behavior (male Sprague-Dawley rats; Animal #1, 0 min): normal
- Rectal Temperature (male Sprague-Dawley rats; Animal #1, 0 min): 38
- Respiratory Rate (male Sprague-Dawley rats; Animal #1, 0 min): 210 min⁻¹
- Behavior (male Sprague-Dawley rats; Animal #1, 5 min): sleep/
- Rectal Temperature (male Sprague-Dawley rats; Animal #1, 5 min): 38
- Behavior (male Sprague-Dawley rats; Animal #1, 10 min): sleep/
- Rectal Temperature (male Sprague-Dawley rats; Animal #1, 10 min): 37
- Respiratory Rate (male Sprague-Dawley rats; Animal #1, 10 min): 69 min⁻¹
- Behavior (male Sprague-Dawley rats; Animal #1, 20 min): sleep
- Rectal Temperature (male Sprague-Dawley rats; Animal #1, 20 min): 36
- Respiratory Rate (male Sprague-Dawley rats; Animal #1, 20 min): 66 min⁻¹
- Behavior (male Sprague-Dawley rats; Animal #1, 30 min): sleep
- Rectal Temperature (male Sprague-Dawley rats; Animal #1, 30 min): 36
- Respiratory Rate (male Sprague-Dawley rats; Animal #1, 30 min): 75 min⁻¹
- Behavior (male Sprague-Dawley rats; Animal #1, 1 h): sleep
- Rectal Temperature (male Sprague-Dawley rats; Animal #1, 1 h): 32
- Respiration Rate (male Sprague-Dawley rats; Animal #1, 1 h): 42 min⁻¹
- Behavior (male Sprague-Dawley rats; Animal #1, 1.5 h): sleep
- Rectal Temperature (male Sprague-Dawley rats; Animal #1, 1.5 h): 29
- Respiration Rate (male Sprague-Dawley rats; Animal #1, 1.5 h): 45 min⁻¹
- Behavior (male Sprague-Dawley rats; Animal #1, 2 h): sleep
- Rectal Temperature (male Sprague-Dawley rats; Animal #1, 2 h): 27
- Respiration Rate (male Sprague-Dawley rats; Animal #1, 2 h): 54 min⁻¹
- Behavior (male Sprague-Dawley rats; Animal #1, 2.5 h): sleep
- Rectal Temperature (male Sprague-Dawley rats; Animal #1, 2.5 h): 25
- Respiration Rate (male Sprague-Dawley rats; Animal #1, 2.5 h): 51 min⁻¹
- Behavior (male Sprague-Dawley rats; Animal #1, 3 h): sleep
- Rectal Temperature (male Sprague-Dawley rats; Animal #1, 3 h): 24
- Respiration Rate (male Sprague-Dawley rats; Animal #1, 3 h): 42 min⁻¹
- Behavior (male Sprague-Dawley rats; Animal #1, 3.5 h): sleep
- Rectal Temperature (male Sprague-Dawley rats; Animal #1, 3.5 h): 23
- Respiration Rate (male Sprague-Dawley rats; Animal #1, 3.5 h): 42 min⁻¹
- Behavior (male Sprague-Dawley rats; Animal #1, 4 h): sleep
- Rectal Temperature (male Sprague-Dawley rats; Animal #1, 4 h): 21
- Respiration Rate (male Sprague-Dawley rats; Animal #1, 4 h): 42 min⁻¹
- Behavior (male Sprague-Dawley rats; Animal #2, 0 min): normal
- Rectal Temperature (male Sprague-Dawley rats; Animal #2, 0 min): 39
- Respiratory Rate (male Sprague-Dawley rats; Animal #2, 0 min): 220 min⁻¹
- Behavior (male Sprague-Dawley rats; Animal #2, 5 min): normal
- Rectal Temperature (male Sprague-Dawley rats; Animal #2, 5 min): 39
- Respiratory Rate (male Sprague-Dawley rats; Animal #2, 5 min): 99 min⁻¹
- Behavior (male Sprague-Dawley rats; Animal #2, 10 min): sleep/
- Rectal Temperature (male Sprague-Dawley rats; Animal #2, 10 min): 38
- Respiratory Rate (male Sprague-Dawley rats; Animal #2, 10 min): 84 min⁻¹
- Behavior (male Sprague-Dawley rats; Animal #2, 20 min): sleep/
- Rectal Temperature (male Sprague-Dawley rats; Animal #2, 20 min): 37
- Respiratory Rate (male Sprague-Dawley rats; Animal #2, 20 min): 57 min⁻¹
- Behavior (male Sprague-Dawley rats; Animal #2, 30 min): sleep/
- Rectal Temperature (male Sprague-Dawley rats; Animal #2, 30 min): 37
- Respiratory Rate (male Sprague-Dawley rats; Animal #2, 30 min): 51 min⁻¹
- Behavior (male Sprague-Dawley rats; Animal #2, 1 h): sleep
- Rectal Temperature (male Sprague-Dawley rats; Animal #2, 1 h): 33
- Respiration Rate (male Sprague-Dawley rats; Animal #2, 1 h): 36 min⁻¹
- Behavior (male Sprague-Dawley rats; Animal #2, 1.5 h): sleep
- Rectal Temperature (male Sprague-Dawley rats; Animal #2, 1.5 h): 30
- Respiration Rate (male Sprague-Dawley rats; Animal #2, 1.5 h): 36 min⁻¹
- Behavior (male Sprague-Dawley rats; Animal #2, 2 h): sleep
- Rectal Temperature (male Sprague-Dawley rats; Animal #2, 2 h): 28
- Respiration Rate (male Sprague-Dawley rats; Animal #2, 2 h): 36 min⁻¹
- Behavior (male Sprague-Dawley rats; Animal #2, 2.5 h): sleep
- Rectal Temperature (male Sprague-Dawley rats; Animal #2, 2.5 h): 27
- Respiration Rate (male Sprague-Dawley rats; Animal #2, 2.5 h): 30 min⁻¹
- Behavior (male Sprague-Dawley rats; Animal #2, 3 h): sleep
- Rectal Temperature (male Sprague-Dawley rats; Animal #2, 3 h): 26
- Respiration Rate (male Sprague-Dawley rats; Animal #2, 3 h): 27 min⁻¹
- Behavior (male Sprague-Dawley rats; Animal #2, 3.5 h): sleep
- Rectal Temperature (male Sprague-Dawley rats; Animal #2, 3.5 h): 25
- Respiration Rate (male Sprague-Dawley rats; Animal #2, 3.5 h): 24 min⁻¹
- Behavior (male Sprague-Dawley rats; Animal #2, 4 h): sleep
- Rectal Temperature (male Sprague-Dawley rats; Animal #2, 4 h): 25
- Respiration Rate (male Sprague-Dawley rats; Animal #2, 4 h): 27 min⁻¹
- Effect on core body temperature (conclusion) (male Sprague-Dawley rats; rats, Tables 3A and 3B): reduces an animal's core body temperature
- Survival of the animals (male Sprague-Dawley rats; two rats, 15 mg/kg JV then 20 mg/mL at 1 mL/h for 4 hours): Both animals survived the experiment

SMILES: OC[C@H]1O[C@@H](n2cnc3c(NC4(CO)CCCC4)nc(Cl)nc32)[C@H](O)[C@@H]1O [I′-19]
- Ki [1]: 0.00647 µM
- Ki [2]: 5.96 µM
- Ki [4]: 24 µM

SMILES: OC[C@H]1O[C@@H](n2cnc3c(NC4CCCC4)nc(Cl)nc32)[C@H](O)[C@@H]1O [[^3H]CCPA, 2-chloro-N^6-[^3H]cyclopentyladenosine, reference compound]
- Ki ([4]; displacement of specific [^3H]NECA binding, CHO cells, geometric mean, read-out: Ki(A2A)): 2.27 µM
